According to ChEMBL document CHEMBL5325486, “Synthesis of novobiocin derivatives and evaluation of their antigonococcal activity and pharmacokinetics” (Bioorg Med Chem, 2023):
Values after ≈ are worked out from the molar mass of the structure shown.

Experiments:
Staphylococcus aureus = assay: Antibacterial activity against Staphylococcus aureus assessed inhibition of bacterial growth; assay type: functional
Neisseria gonorrhoeae [1] = assay: Antibacterial activity against resistant Neisseria gonorrhoeae assessed inhibition of bacterial growth; assay type: functional
[2] = Effective permeability of compound by PAMPA assay; assay type: ADME; details: read-out: Peff
[3] = Aqueous solubility of compound in neutral JP2 solution; assay type: physicochemical; details: JP2 solution; read-out: solubility
Neisseria gonorrhoeae [4] = assay: Antibacterial activity against Neisseria gonorrhoeae clinical isolate assessed inhibition of bacterial growth; assay type: functional
[5] = Metabolic stability in mouse liver microsomes assessed as residual rate; assay type: ADME, Microsome
[6] = Aqueous solubility of compound in acidic JP1 solution; assay type: physicochemical; details: JP1 solution; read-out: solubility

| SMILES | MIC50 (Staphylococcus aureus) | MIC90 (Staphylococcus aureus) | MIC50 (Neisseria gonorrhoeae [1]) | MIC90 (Neisseria gonorrhoeae [1]) | Papp [2] | solubility [3] | MIC90 (Neisseria gonorrhoeae [4]) | Stability [5] | solubility [6] |
| --- | --- | --- | --- | --- | --- | --- | --- | --- | --- |
| CO[C@@H]1[C@@H](OC(=O)c2ccc(C)[nH]2)[C@@H](O)[C@H](Oc2ccc3c(O)c(NC(=O)c4c(C)ncn4CC=C(C)C)c(=O)oc3c2C)OC1(C)C | 0.5 µg/mL (≈ 0.752 µM) | 0.5 µg/mL (≈ 0.752 µM) | 0.5 µg/mL (≈ 0.752 µM) | 0.5 µg/mL (≈ 0.752 µM) |  |  |  |  |  |
| CO[C@@H]1[C@@H](OC(=O)c2ccc(C)[nH]2)[C@@H](O)[C@H](Oc2ccc3c(O)c(NC(=O)c4ccnc(N)c4)c(=O)oc3c2C)OC1(C)C | 2 µg/mL (≈ 3.29 µM) | 2 µg/mL (≈ 3.29 µM) | 0.5 µg/mL (≈ 0.822 µM) | 1 µg/mL (≈ 1.64 µM) |  |  |  |  |  |
| CO[C@@H]1[C@@H](OC(=O)c2ccc(C)[nH]2)[C@@H](O)[C@H](Oc2ccc3c(O)c(NC(=O)c4ccnc(N(C)C)c4)c(=O)oc3c2C)OC1(C)C | 0.5 µg/mL (≈ 0.785 µM) | 0.5 µg/mL (≈ 0.785 µM) | 0.5 µg/mL (≈ 0.785 µM) | 0.5 µg/mL (≈ 0.785 µM) |  |  |  |  |  |
| CO[C@@H]1[C@@H](OC(=O)c2ccc(C)[nH]2)[C@@H](O)[C@H](Oc2ccc3c(O)c(NC(=O)c4cscn4)c(=O)oc3c2C)OC1(C)C | 0.5 µg/mL (≈ 0.834 µM) | 0.5 µg/mL (≈ 0.834 µM) | 0.5 µg/mL (≈ 0.834 µM) | 0.5 µg/mL (≈ 0.834 µM) |  |  |  |  |  |
| C#CCONC(=O)O[C@H]1[C@@H](O)[C@H](Oc2ccc3c(O)c(NC(=O)c4ccc(O)c(CC=C(C)C)c4)c(=O)oc3c2C)OC(C)(C)[C@@H]1OC | 0.063 µg/mL (≈ 0.0945 µM) | 0.063 µg/mL (≈ 0.0945 µM) | 0.25 µg/mL (≈ 0.375 µM) | 0.5 µg/mL (≈ 0.75 µM) | 1.14 ×10⁻⁶ cm/s | 69.3 µM (≈ 46.2 µg/mL) | 0.125 µg/mL (≈ 0.187 µM) | 47.2% | < 1 µM |
| CO[C@@H]1[C@@H](OC(=O)c2ccc(C)[nH]2)[C@@H](O)[C@H](Oc2ccc3c(O)c(NC(=O)c4ccnc(C)c4)c(=O)oc3c2C)OC1(C)C | 0.5 µg/mL (≈ 0.823 µM) | 1 µg/mL (≈ 1.65 µM) | 0.25 µg/mL (≈ 0.411 µM) | 0.5 µg/mL (≈ 0.823 µM) | 0.349 ×10⁻⁶ cm/s | 71.8 µM (≈ 43.6 µg/mL) |  | 120% | 55 µM (≈ 33.4 µg/mL) |
| CO[C@@H]1[C@@H](OC(=O)c2ccc(C)[nH]2)[C@@H](O)[C@H](Oc2ccc3c(O)c(NC(=O)CN(C)C)c(=O)oc3c2C)OC1(C)C | 1 µg/mL (≈ 1.74 µM) | 2 µg/mL (≈ 3.49 µM) | 2 µg/mL (≈ 3.49 µM) | 4 µg/mL (≈ 6.97 µM) |  | > 100 µM |  |  | > 100 µM |
| CO[C@@H]1[C@@H](OC(=O)c2ccc(C)[nH]2)[C@@H](O)[C@H](Oc2ccc3c(O)c(NC(=O)c4cn(C)c(CCC(C)C)n4)c(=O)oc3c2C)OC1(C)C | 0.25 µg/mL (≈ 0.375 µM) | 0.25 µg/mL (≈ 0.375 µM) | 0.5 µg/mL (≈ 0.75 µM) | 1 µg/mL (≈ 1.5 µM) |  |  |  |  |  |
| CO[C@@H]1[C@@H](OC(=O)c2ccc(C)[nH]2)[C@@H](O)[C@H](Oc2ccc3c(O)c(NC(=O)CCN(C)C)c(=O)oc3c2C)OC1(C)C | 2 µg/mL (≈ 3.4 µM) | 4 µg/mL (≈ 6.81 µM) | 16 µg/mL (≈ 27.2 µM) | 32 µg/mL (≈ 54.5 µM) |  | > 100 µM |  |  | > 100 µM |
| CO[C@@H]1[C@@H](OC(=O)c2ccc(C)[nH]2)[C@@H](O)[C@H](Oc2ccc3c(O)c(NC(=O)c4c[nH]cn4)c(=O)oc3c2C)OC1(C)C | 1 µg/mL (≈ 1.72 µM) | 1 µg/mL (≈ 1.72 µM) | 1 µg/mL (≈ 1.72 µM) | 1 µg/mL (≈ 1.72 µM) |  |  |  |  |  |
| CO[C@@H]1[C@@H](OC(=O)c2ccc(C)[nH]2)[C@@H](O)[C@H](Oc2ccc3c(O)c(NC(=O)c4cn(CC5CC5)cn4)c(=O)oc3c2C)OC1(C)C | 0.5 µg/mL (≈ 0.785 µM) | 0.5 µg/mL (≈ 0.785 µM) | 0.5 µg/mL (≈ 0.785 µM) | 1 µg/mL (≈ 1.57 µM) |  |  |  |  |  |
| CO[C@@H]1[C@@H](OC(=O)c2ccc(C)[nH]2)[C@@H](O)[C@H](Oc2ccc3c(O)c(NC(=O)c4cn(C)cn4)c(=O)oc3c2C)OC1(C)C | 0.5 µg/mL (≈ 0.838 µM) | 0.5 µg/mL (≈ 0.838 µM) | 0.25 µg/mL (≈ 0.419 µM) | 0.5 µg/mL (≈ 0.838 µM) | 1.61 ×10⁻⁶ cm/s | > 80 µM | 0.25 µg/mL (≈ 0.419 µM) | 119% | > 80 µM |
| CO[C@@H]1[C@@H](OC(=O)c2ccc(C)[nH]2)[C@@H](O)[C@H](Oc2ccc3c(O)c(NC(=O)c4sc5nccn5c4C)c(=O)oc3c2C)OC1(C)C | 0.5 µg/mL (≈ 0.766 µM) | 1 µg/mL (≈ 1.53 µM) | 0.5 µg/mL (≈ 0.766 µM) | 0.5 µg/mL (≈ 0.766 µM) |  |  |  |  |  |
| C=Cc1cc(C(=O)Nc2c(O)c3ccc(O[C@@H]4OC(C)(C)[C@H](OC)[C@@H](OC(=O)c5ccc(C)[nH]5)[C@H]4O)c(C)c3oc2=O)ccc1N | 0.25 µg/mL (≈ 0.395 µM) | 0.5 µg/mL (≈ 0.789 µM) | 0.25 µg/mL (≈ 0.395 µM) | 0.5 µg/mL (≈ 0.789 µM) | 8.06 ×10⁻⁶ cm/s | 65.8 µM (≈ 41.7 µg/mL) | 0.25 µg/mL (≈ 0.395 µM) | 104% | 1.79 µM (≈ 1.13 µg/mL) |
